The test system of one test is stomach tone. In words: In vivo determination of the effect of the substances on the stomach tone (barostat, stomach volume at constant pressure after lipid intake). The note with it: beagles; maximum tolerable dose; stomach volume measured at constant pressure with barostat. The procedure: 2. In vivo determination of the effect of the substances on the stomach tone.
The stomach tone plays an important role in gastric emptying. An increased stomach tone contributes to an increased rate of gastric emptying.
The influence of substances on the stomach tone is determined on beagles with the aid of a barostat which is connected to a plastic pouch in the stomach of the dog and permits measurement of volume or pressure in the stomach of the dog. With the barostat, the stomach volume is determined at a constant pressure in the stomach or the stomach pressure is determined at a constant volume in the stomach. When the stomach tone increases, a reduced stomach volume is detected at a given pressure, and an increased pressure at a given volume. In the test model used to investigate the increase in stomach tone effected by the substances, the change in stomach volume caused by the substances is measured at constant pressure. The stomach of the test animals is relaxed by intake of lipids, i.e. the stomach tone decreases, which causes the stomach volume to increase correspondingly. The reduction in % of the stomach volume which has been increased by administration of lipids which occurs after intake of the substance due to a re-increase in stomach tone is measured as a measurement of the stomach tone-increasing action of the substances.

Another test deals with T1, motilin receptors (Oryctolagus cuniculus, UniProt G1T803).
T1 construct: fraction of a tissue homogenate from rabbit antrum; from tissue; host or cells: rabbit antrum, mucosa removed, crude membrane preparation
In words: Determination of the binding capacity of the test substances to motilin receptors (displacement of 125-iodine-labelled motilin, crude membrane preparation from rabbit antrum). The note with it: tissue homogenate fraction from rabbit antrum; iodinated motilin 50 pM; 30° C., 60 min; read-out: pIC50 value (50% inhibition of the specific binding of the iodinated motilin to the motilin receptors) (converted). The procedure: 1. Determination of the binding capacity of the test substances to motilin receptors.
The affinity of the compounds of Formula I for motilin receptors is measured in vitro on a fraction of a tissue homogenate from rabbit antrum. The displacement of radioactively labelled iodinated motilin from motilin receptor binding by the test substances is determined.
The receptor binding studies are carried out by a modification of the method of Borman et al. (Regulatory Peptides, 15:143-153 (1986). To prepare the ^125 iodine-labelled motilin, motilin is iodinated enzymatically using lactoperoxidase in known manner, for example in analogy to the method described by Bloom et al., Scand. J. Gastroenterol.,11:47-52 (1976). […]
For the binding test, 200 μl of the crude membrane fraction (0.5-1 mg of protein) in 400 μl of a buffer solution A (50 mM tris-HCl buffer, 1.5% BSA, 10 mM MgCl2, pH 8.0) are incubated with 100 μl of iodinated motilin diluted in buffer solution B (10 mM tris-HCl buffer, 1% BSA, pH 8) (final concentration 50 pM) at 30° C. for 60 min. […] The residue obtained as pellet after the centrifugation is washed with buffer solution B and counted in a gamma counter. […] From this the corresponding pIC50 value is calculated.

T1 sequence (G1T803 1-400): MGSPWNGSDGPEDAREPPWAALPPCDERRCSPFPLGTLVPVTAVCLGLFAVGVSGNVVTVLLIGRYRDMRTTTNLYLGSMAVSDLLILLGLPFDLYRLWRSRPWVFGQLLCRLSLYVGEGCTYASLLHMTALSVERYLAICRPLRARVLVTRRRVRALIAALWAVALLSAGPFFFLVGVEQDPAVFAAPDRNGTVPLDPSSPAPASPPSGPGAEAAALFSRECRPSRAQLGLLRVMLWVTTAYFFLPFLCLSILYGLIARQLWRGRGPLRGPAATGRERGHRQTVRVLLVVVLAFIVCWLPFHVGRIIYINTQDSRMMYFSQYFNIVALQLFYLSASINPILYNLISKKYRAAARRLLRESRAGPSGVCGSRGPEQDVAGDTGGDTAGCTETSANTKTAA

`CC[C@@H](O)[C@@]1(C)O[C@]23O[C@](C)(CC2C)[C@H](O[C@@H]2O[C@H](C)C[C@H](N(C)C(C)C)[C@H]2O)[C@@H](C)[C@H](O[C@H]2C[C@@](C)(OC)[C@@H](O)[C@H](C)O2)[C@@H](C)C(=O)O[C@@H]1[C@H]3C` (stereo partly drawn) [Example 1, [(1'R),2R,3S,4S,5R,6R,9R,11R,12R,14R]-11-(1'-hydroxypropyl)-3-[(2,6-dideoxy-3-C-methyl-3-0-methyl-α-L-ribohexopyranosyl)-oxy]-5-[(3,4,6-trideoxy-3-(N-methyl-N-isopropylamino)-β-D-xylo-hexopyranosyl)-oxy]-2,4,6,8,11,14-hexamethyl-10,13,15-trioxatricyclo[9.2.1.1^9.6]-pentadecan-1-one]: in the test on stomach tone, the “reduction in the stomach volume increased after lipid administration” value turned out to be 69%. For the same molecule, the IC50 at motilin receptors was 14.1 nM.

(Values after patent US5912235A, “10, 13, 15-trioxatricyclo [9.2.1.1.^9.6 ]-pentadecan one derivatives, method for their production and pharmaceutical compositions containing them” (Solvay Pharmaceuticals GmbH, priority 1996, dated 1999).)
